Results on 52 compounds are retold here after PubChem BioAssay AID1996.

Converted amounts (≈) assume the structure as drawn.

The conditions of the data set: buffer; pH 7.4; 200.0 µM.
Take `COc1ccc(CN(C)C(=O)COC(=O)c2cc([N+](=O)[O-])ccc2N2CCCC2)c(OC)c1OC`: the solubility (kinetic) stood at 10.2 µg/mL (≈ 20.9 µM).

In turn, `COc1cc(C(=O)OCCNC(=O)c2ccccc2)cc(OC)c1OC` returned a kinetic solubility above 53.9 µg/mL.

On to `CCCCNC(=O)NCCN1CCOCC1`, for which the solubility (kinetic) worked out at 31.9 µg/mL (≈ 139 µM).

As for `S=C(NCCCc1ccccc1)Nc1ccccc1`, the solubility (kinetic) was 31.9 µg/mL (≈ 118 µM).

`CC(CCc1ccccc1)N1CCN(C)CC1` (configuration not stated) registered a solubility (kinetic) of 33.2 µg/mL (≈ 143 µM). This solubility kinetic and that of the compound before are within 1.5-fold of each other.

Consider `COc1ccc(CNC(=O)N[C@@H](CC(C)C)C(=O)O)cc1OC`, for which the solubility (kinetic) was above 48.7 µg/mL.

As for `Cl.O=C(NCC(c1ccc(F)cc1)N1CCOCC1)c1ccc([N+](=O)[O-])o1` (configuration not stated), the kinetic solubility was above 60 µg/mL.

The compound `CCN(c1ccccc1)S(=O)(=O)c1ccc(Cl)nc1` displayed a solubility (kinetic) of 32 µg/mL (≈ 108 µM).

`NS(=O)(=O)c1ccc(O)c(NC(=O)c2ccc([N+](=O)[O-])o2)c1`: the solubility (kinetic) is above 49.1 µg/mL.

Compound `CCN(CC(=O)Nc1ccc2c(c1)OCCO2)CC(=O)Nc1ccc(C)c(S(=O)(=O)N(C)C)c1` registered a kinetic solubility of 35.3 µg/mL (≈ 72 µM).

`CN1C(=O)CCC(CCC(=O)O)(c2ccccc2O)C1=O` (configuration not stated): the solubility (kinetic) is above 43.7 µg/mL.

The compound `Cc1ccc(NC(=O)CSc2ncccn2)cc1S(=O)(=O)N1CCOCC1` displayed a solubility (kinetic) above 61.3 µg/mL.

The compound `Nc1ccc(Oc2ccc3c(c2)C(=O)N(CC2CCCO2)C3=O)cc1` (configuration not stated) returned a solubility (kinetic) above 50.8 µg/mL.

As to `Cc1nnc(NC(=O)CSc2nccn2-c2ccc(F)cc2)s1`, the solubility (kinetic) was above 52.4 µg/mL.

The compound `COc1ccc(S(=O)(=O)N2CCOCC2)cc1C(=O)N(C)Cc1ccco1` registered a kinetic solubility above 59.2 µg/mL.

The compound `O=C(Nc1cccnc1)c1cccc(S(=O)(=O)N2CCCCC2)c1` displayed a solubility (kinetic) above 51.8 µg/mL.

For `C=CCN1CCN(C(=O)c2oc3ccccc3c2C)CC1`, the kinetic solubility is above 42.7 µg/mL.

For the compound `CC(C)c1ccc(C2NC(=O)c3ccccc3O2)cc1` (configuration not stated), the kinetic solubility is 1 µg/mL (≈ 3.74 µM).

`Cc1ccc(C(=O)NCN2CCN(c3ccccc3)CC2)cc1` yielded a kinetic solubility above 46.4 µg/mL.

Compound `CC1CCC(NC(=O)CCNS(=O)(=O)c2ccccc2)CC1` (configuration not stated) came in with a solubility (kinetic) above 48.7 µg/mL.

The compound `CN1C(=O)c2ccc(NC(=O)c3ccc(Cl)cc3Cl)cc2C1=O` registered a solubility (kinetic) of 2.1 µg/mL (≈ 6.01 µM).

`CCN1CCN(S(=O)(=O)Cc2ccccc2Cl)CC1` had a kinetic solubility above 45.4 µg/mL.

`Nc1[nH]c2cc([N+](=O)[O-])ccc2c1-c1ccccn1` yielded a kinetic solubility of 1.4 µg/mL (≈ 5.51 µM).

Compound `O=C1CN(O)C(c2ccccc2)=c2cc(Cl)ccc2=N1` displayed a solubility (kinetic) of 37.9 µg/mL (≈ 132 µM).

Turning to `O=[N+]([O-])c1cccnc1Oc1ccc(OCc2ccccc2)cc1`, the kinetic solubility is below 0.3 µg/mL.

Consider `COc1ccc(Nc2oc(-c3ccc(F)cc3)nc2C#N)cc1`, for which the solubility (kinetic) was below 0.2 µg/mL.

Take `COc1cc(SC)ccc1C(=O)Nc1ccc2c(c1)CCC2`: the kinetic solubility was found to be 2.2 µg/mL (≈ 7.02 µM).

Consider `O=c1c(Cc2ccc(F)cc2)c(O)ccn1Cc1ccco1`, for which the kinetic solubility stood at 33 µg/mL (≈ 110 µM).

Turning to `COc1ccc(CCN2C(=O)CSC2c2ccc(F)cc2)cc1` (configuration not stated), the solubility (kinetic) amounted to 34.4 µg/mL (≈ 104 µM). The solubility kinetic values of the last two compounds are within 1.5-fold of each other.

In turn, `O=Cc1cc2cc3c(cc2nc1Cl)OCCO3` had a kinetic solubility of 0.9 µg/mL (≈ 3.61 µM).

With `CC(C)n1cc(C(N)=S)c(=O)n(Cc2ccccc2)c1=O`, the kinetic solubility amounted to 9.1 µg/mL (≈ 30 µM).

`O=C(CC1CCCC1)N1CCN(S(=O)(=O)c2ccccc2)CC1` had a solubility (kinetic) above 50.5 µg/mL.

For `CN(C)c1ccc(/C=C(/NC(=O)c2ccccc2)C(=O)N2CCCC2)cc1`, the solubility (kinetic) was found to be 47.7 µg/mL (≈ 131 µM).

In turn, `O=C(N1CCCC1)C12CC3CC(CC(Cl)(C3)C1)C2` yielded a kinetic solubility of 37.9 µg/mL (≈ 142 µM).

In turn, `COc1ccccc1NC(=O)c1ccccc1Oc1ccccc1` showed a solubility (kinetic) below 0.7 µg/mL.

Take `CC1=C/C(=N\OS(=O)(=O)c2ccccc2)C=CC1=O`: the solubility (kinetic) came to 7.9 µg/mL (≈ 28.5 µM).

For the compound `Cc1nc(NC(=O)c2c(-c3ccccc3)noc2C)sc1C(=O)N(C)C`, the kinetic solubility is above 55.6 µg/mL.

`O=C(O)c1cc(=O)[nH]c2c(Cl)cccc12` displayed a solubility (kinetic) above 33.5 µg/mL.

Take `Cc1ccc(C)c(NC(=O)CCC(=O)N/N=C/c2cccnc2)c1`: the solubility (kinetic) was above 48.7 µg/mL.

Compound `COc1c(S(=O)(=O)N2CCN(C)CC2)ccc(Cl)c1Cl` gave a solubility (kinetic) of 45.6 µg/mL (≈ 134 µM).

`CC(=O)N1CCC(N(C(=O)Nc2ccc(Cl)cc2)C(C)C)CC1`: the solubility (kinetic) is above 50.7 µg/mL.

Compound `Cc1cc(C)c2sc(NC(=O)CN3C(=O)CCC3=O)nc2c1` registered a solubility (kinetic) of 46.4 µg/mL (≈ 146 µM).

Compound `O=C(Nc1cscc1S(=O)(=O)c1ccc(Cl)cc1)c1ccccc1Cl` displayed a kinetic solubility of 2.6 µg/mL (≈ 6.31 µM).

The compound `COCCCNC(=S)Nc1cc2oc3ccccc3c2cc1OC` gave a solubility (kinetic) of 3.9 µg/mL (≈ 11.3 µM).

`CCCn1nc(C(=O)NC2CCCC2)c2ccccc2c1=O` yielded a solubility (kinetic) above 44.9 µg/mL.

In the case of `O=C(CNC(=O)Cc1cccc2ccccc12)NCc1ccccc1F`, the kinetic solubility is 36.5 µg/mL (≈ 104 µM).

The compound `COc1ccccc1NC(=O)CN1CCCCCC1` had a solubility (kinetic) of 24.3 µg/mL (≈ 92.6 µM).

`NC(=O)Cc1nc(-c2ccc(F)cc2)cs1` returned a solubility (kinetic) above 35.4 µg/mL.

`CCOC(=O)c1nc(Nc2cccc(C)c2)c2ccccc2n1` came in with a solubility (kinetic) of 10.8 µg/mL (≈ 35.1 µM).

The compound `Cc1cccc(N(O)C(=O)Nc2cccc(Cl)c2)c1` gave a kinetic solubility of 10.2 µg/mL (≈ 36.9 µM).

In turn, `C#CC[N+](CC)(CC)CC#Cc1ccccc1.[Br-]` returned a kinetic solubility of 37.8 µg/mL.

As to `CC(=O)c1cccc(NC(=O)CCCSc2ccccc2)c1`, the solubility (kinetic) turned out to be 2.9 µg/mL (≈ 9.25 µM).
